Experimental data published in patent publication US7196110B2, “N-substituted tricyclic 3-aminopyrazoles as inhibitors for the treatment of cell proliferative disorders” (Janssen Phamaceutica N.V., priority 2002, dated 2007).
pIC50: −log10 of the molar value.

Molecular target: T1, PDGF-receptor beta enzyme comprising the tyrosine kinase domain (Homo sapiens, UniProt P09619)
T1 construct: from amino acid 545 to 1106 of GenBank Access NO: AAA36427
Test: Inhibition of PDGF-receptor kinase activity (cell-free, PLC1 peptide, 33P Flashplate)
Format: biochemical
Settings: PDGF-R kinase activity; for inhibition at 10 µM: compound at 10 uM, read-out: Percent Inhibition @ 10 uM; for pIC50: read-out: IC50
Summary of the method: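 The IC50 is the inhibitor level halving kinase activity relative to inhibitor-free wells, measured as 33P captured on a streptavidin-bound biotin-PLC1 peptide. The reaction ran 60 min at 30 °C in pH 8 Tris buffer with 1 mM DTT, 5 μM ATP and the 545–1106 kinase-domain enzyme.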

T1 sequence (P09619 545-1106): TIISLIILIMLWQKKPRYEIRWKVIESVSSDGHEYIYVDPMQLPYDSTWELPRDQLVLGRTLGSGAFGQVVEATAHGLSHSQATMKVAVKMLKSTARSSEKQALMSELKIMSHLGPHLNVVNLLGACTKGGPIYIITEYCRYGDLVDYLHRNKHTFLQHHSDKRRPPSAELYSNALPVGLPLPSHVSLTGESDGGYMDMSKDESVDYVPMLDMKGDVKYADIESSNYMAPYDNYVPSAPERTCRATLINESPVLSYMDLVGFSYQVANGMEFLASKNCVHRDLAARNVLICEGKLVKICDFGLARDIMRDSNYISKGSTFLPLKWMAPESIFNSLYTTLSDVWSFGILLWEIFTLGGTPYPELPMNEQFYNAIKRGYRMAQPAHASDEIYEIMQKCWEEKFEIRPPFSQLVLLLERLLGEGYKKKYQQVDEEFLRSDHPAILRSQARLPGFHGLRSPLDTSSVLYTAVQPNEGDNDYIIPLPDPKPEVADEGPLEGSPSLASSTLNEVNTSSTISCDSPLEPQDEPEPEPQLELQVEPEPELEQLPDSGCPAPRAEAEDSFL

| Compound | inhibition at 10 µM | pIC50 |
| --- | --- | --- |
| CCOc1cc2c(cc1OCC)-c1n[nH]c(NCc3ccccc3)c1C2 [Compound 264, Benzyl-(6,7-diethoxy-2,4-dihydro-indeno[1,2-c]pyrazol-3-yl)-amine] | 86% | 7.07 |
| COc1cc2c(cc1OC)-c1n[nH]c(NCc3cc(Cl)cc(Cl)c3)c1C2 [Compound 271, (3,5-Dichloro-benzyl)-(6,7-dimethoxy-2,4-dihydro-indeno[1,2-c]pyrazol-3-yl)-amine] | 54.5% | 5.16 |
| COc1cc2c(cc1OC)-c1n[nH]c(NCc3cccc(C)c3)c1C2 [Compound 272, (6,7-Dimethoxy-2,4-dihydro-indeno[1,2-c]pyrazol-3-yl)-(3-methyl-benzyl)-amine] | 61% | 6.41 |
| COc1ccc(OC)c(CNc2[nH]nc3c2Cc2cc(OC)c(OC)cc2-3)c1 [Compound 274, (2,5-Dimethoxy-benzyl)-(6,7-dimethoxy-2,4-dihydro-indeno[1,2-c]pyrazol-3-yl)-amine] | 57.5% | 5.58 |
| COc1cc2c(cc1OC)-c1n[nH]c(NCc3ccc(F)c(F)c3)c1C2 [Compound 275, (3,4-Difluoro-benzyl)-(6,7-dimethoxy-2,4-dihydro-indeno[1,2-c]pyrazol-3-yl)-amine] | 80.5% | 6.30 |
| COc1cc2c(cc1OC)-c1n[nH]c(Nc3ccc(F)c([N+](=O)[O-])c3)c1C2 [Compound 276, (6,7-Dimethoxy-2,4-dihydro-indeno[1,2-c]pyrazol-3-yl)-(4-fluoro-3-nitro-phenyl)-amine] | 11% | 6.54 |
| COc1ccc(Nc2[nH]nc3c2Cc2cc(OC)c(OC)cc2-3)cc1Cl [Compound 277, (3-Chloro-4-methoxy-phenyl)-(6,7-dimethoxy-2,4-dihydro-indeno[1,2-c]pyrazol-3-yl)-amine] | 88% | 5.87 |
| COc1cc2c(cc1OC)-c1n[nH]c(Nc3cccc(C(C)O)c3)c1C2 (centres unmarked) [Compound 278, 1-[3-(6,7-Dimethoxy-2,4-dihydro-indeno[1,2-c]pyrazol-3-ylamino)-phenyl]-ethanol] | 97% | 7.53 |
| COc1cc2c(cc1OC)-c1n[nH]c(Nc3cc(C(C)(C)C)cc(C(C)(C)C)c3)c1C2 [Compound 279, (3,5-Di-tert-butyl-phenyl)-(6,7-dimethoxy-2,4-dihydro-indeno[1,2-c]pyrazol-3-yl)-amine] | 19.5% | 3.69 |
| COCCCOc1cc2c(cc1OCCCOC)-c1n[nH]c(Nc3cccc(Cl)c3)c1C2 [Compound 285, [6,7-Bis-(3-methoxy-propoxy)-2,4-dihydroindeno[1,2-c]pyrazol-3-yl]-(3-chloro-phenyl)-amine] | 18.5% | 8.56 |
| COc1ccc(Nc2[nH]nc3c2Cc2cc(F)ccc2-3)cc1Cl [Compound 288, (3-Chloro-4-methoxy-phenyl)-(6-fluoro-2,4-dihydro-indeno[1,2-c]pyrazol-3-yl)-amine] | 88.5% | 6.66 |
| CCOc1cc2c(cc1OCC)-c1n[nH]c(NCc3ccccc3F)c1C2 [Compound 293, (6,7-Diethoxy-2,4-dihydro-indeno[1,2-c]pyrazol-3-yl)-(2-fluoro-benzyl)-amine] | 96.5% | 7.16 |
| CCOc1cc2c(cc1OCC)-c1n[nH]c(NCc3cccc(F)c3)c1C2 [Compound 294, (6,7-Diethoxy-2,4-dihydro-indeno[1,2-c]pyrazol-3-yl)-(3-fluoro-benzyl)-amine] | 81% | 6.58 |
| COc1cc2c(cc1OC)-c1n[nH]c(Nc3cccc(C(=O)NCCO)c3)c1C2 [Compound 297, 3-(6,7-Dimethoxy-2,4-dihydro-indeno[1,2-c]pyrazol-3-ylamino)-N-(2-hydroxy-ethyl)-benzamide] | 90.5% | 6.56 |
| CCOc1cc2c(cc1OCC)-c1n[nH]c(NCc3ccccc3OC(F)(F)F)c1C2 [Compound 301, (6,7-Diethoxy-2,4-dihydro-indeno[1,2-c]pyrazol-3-yl)-(2-trifluoromethoxy-benzyl)-amine] | 72% |  |
| Fc1ccc2c(c1)Cc1c-2n[nH]c1NCc1cc(Cl)cc(Cl)c1 [Compound 304, (3,5-Dichloro-benzyl)-(6-fluoro-2,4-dihydro-indeno[1,2-c]pyrazol-3-yl)-amine] | 38% | 5.46 |
| Cc1ccc(CNc2[nH]nc3c2Cc2cc(F)ccc2-3)cc1Cl [Compound 306, (3-Chloro-4-methyl-benzyl)-(6-fluoro-2,4-dihydroindeno[1,2-c]pyrazol-3-yl)-amine] | 47.5% | 5.07 |
| Cc1ccc2c(c1)-c1n[nH]c(Nc3ccc4[nH]ccc4c3)c1C2 [Compound 311, (1H-Indol-5-yl)-(7-methyl-2,4-dihydro-indeno[1,2-c]pyrazol-3-yl)-amine] | 68.5% | 7.13 |
| Cc1ccc2c(c1)-c1n[nH]c(Nc3cc(C(C)(C)C)cc(C(C)(C)C)c3)c1C2 [Compound 312, (3,5-Di-tert-butyl-phenyl)-(7-methyl-2,4-dihydro-indeno[1,2-c]pyrazol-3-yl)-amine] | 56.5% | 5.25 |
| Cc1ccc2c(c1)-c1n[nH]c(NCc3cc(Cl)cc(Cl)c3)c1C2 [Compound 313, (3,5-Dichloro-benzyl)-(7-methyl-2,4-dihydro-indeno[1,2-c]pyrazol-3-yl)-amine] | 62.5% | 5.46 |
| Cc1cccc(CNc2[nH]nc3c2Cc2ccc(C)cc2-3)c1 [Compound 314, (3-Methyl-benzyl)-(7-methyl-2,4-dihydro-indeno[1,2-c]pyrazol-3-yl)-amine] | 76% | 6.05 |
| Cc1ccc2c(c1)-c1n[nH]c(NCc3ccc(C)c(Cl)c3)c1C2 [Compound 315, (3-Chloro-4-methyl-benzyl)-(7-methyl-2,4-dihydro-indeno[1,2-c]pyrazol-3-yl)-amine] | 17.5% | 5.72 |
| COc1ccc(OC)c(CNc2[nH]nc3c2Cc2ccc(C)cc2-3)c1 [Compound 316, (2,5-Dimethoxy-benzyl)-(7-methyl-2,4-dihydro-indeno[1,2-c]pyrazol-3-yl)-amine] | 66% | 5.31 |
| Cc1ccc2c(c1)-c1n[nH]c(NCc3ccc(F)c(F)c3)c1C2 [Compound 317, (3,4-Difluoro-benzyl)-(7-methyl-2,4-dihydro-indeno[1,2-c]pyrazol-3-yl)-amine] | 79% | 5.90 |

Now from value to compound:

| inhibition at 10 µM | pIC50 | Compound |
| --- | --- | --- |
| 77% | 5.80 | COc1cc2c(cc1OC)-c1n[nH]c(NCc3ccc(C)c(Cl)c3)c1C2 [Compound 273, (3-Chloro-4-methyl-benzyl)-(6,7-dimethoxy-2,4-dihydro-indeno[1,2-c]pyrazol-3-yl)-amine] |
| 87.5% | 7.21 | Fc1ccc2c(c1)Cc1c-2n[nH]c1Nc1ccc2[nH]ccc2c1 [Compound 290, (6-Fluoro-2,4-dihydro-indeno[1,2-c]pyrazol-3-yl)-(1H-indol-5-yl)-amine] |
| 95% | 6.69 | COc1cc2c(cc1OCc1ccccc1)Cc1c-2n[nH]c1Nc1cccc(F)c1 [Compound 291, (6-Benzyloxy-7-methoxy-2,4-dihydro-indeno[1,2-c]pyrazol-3-yl)-(3-fluoro-phenyl)-amine] |
| 81.5% | 8.78 | CCOc1cc2c(cc1OCC)-c1n[nH]c(NCc3c(Cl)cccc3Cl)c1C2 [Compound 295, (2,6-Dichloro-benzyl)-(6,7-diethoxy-2,4-dihydro-indeno[1,2-c]pyrazol-3-yl)-amine] |
| 72.5% | 5.74 | CCOc1cc2c(cc1OCC)-c1n[nH]c(NCc3ccccc3OC)c1C2 [Compound 296, (6,7-Diethoxy-2,4-dihydro-indeno[1,2-c]pyrazol-3-yl)-(2-methoxy-benzyl)-amine] |
| 92% | 6.39 | COc1cc2c(cc1OC)-c1n[nH]c(Nc3cccc(C(=O)NCCCN4CCCC4)c3)c1C2 [Compound 298, 3-(6,7-Dimethoxy-2,4-dihydro-indeno[1,2-c]pyrazol-3-ylamino)-N-(3-pyrrolidin-1-yl-propyl)-benzamide] |
| 40% |  | COc1cc2c(cc1OC)C(c1ccccc1)c1c-2n[nH]c1Nc1ccccc1 (centres unmarked) [Compound 300, (6,7-Dimethoxy-4-phenyl-2,4-dihydro-indeno[1,2-c]pyrazol-3-yl)-phenyl-amine] |
| 47% |  | COc1cc2c(cc1OC)C(c1ccccc1)c1c-2n[nH]c1Nc1cccc(F)c1 (centres unmarked) [Compound 302, (6,7-Dimethoxy-4-phenyl-2,4-dihydro-indeno[1,2-c]pyrazol-3-yl)-(3-fluoro-phenyl)-amine] |
| 50% | 5.03 | CC(C)(C)c1cc(Nc2[nH]nc3c2Cc2cc(F)ccc2-3)cc(C(C)(C)C)c1 [Compound 303, (3,5-Di-tert-butyl-phenyl)-(6-fluoro-2,4-dihydro-indeno[1,2-c]pyrazol-3-yl)-amine] |
| 87% | 6.34 | Cc1cccc(CNc2[nH]nc3c2Cc2cc(F)ccc2-3)c1 [Compound 305, (6-Fluoro-2,4-dihydro-indeno[1,2-c]pyrazol-3-yl)-(3-methyl-benzyl)-amine] |
| 59% | 5.47 | COc1ccc(OC)c(CNc2[nH]nc3c2Cc2cc(F)ccc2-3)c1 [Compound 307, (2,5-Dimethoxy-benzyl)-(6-fluoro-2,4-dihydro-indeno[1,2-c]pyrazol-3-yl)-amine] |
| 14% | 6.29 | Fc1ccc2c(c1)Cc1c-2n[nH]c1NCc1ccc(F)c(F)c1 [Compound 308, (3,4-Difluoro-benzyl)-(6-fluoro-2,4-dihydro-indeno[1,2-c]pyrazol-3-yl)-amine] |
| 23% | 4.46 | c1ccc(Nc2[nH]nc3c2CCOc2ccccc2-3)cc1 [Compound 318, (4,5-Dihydro-2H-6-oxa-1,2-diaza-benzo[e]azulen-3-yl)-phenyl-amine] |
